Measurements published in patent US10538567B2, “Compounds as peptidic trigonal GLP1/glucagon/GIP receptor agonists” (priority 2016, dated 2020).
Numbered stars: 1 amine (or outer) side, 2 acyl side, 3 side chain; on linkers, the order of the positions; unused ones are H or OH. Square brackets hold non-standard residues; d marks the D form. Side chains are listed from the residue outwards. Peptide text beside a SMILES is read from it. * marks the point of attachment. Adipoyl(4R-palmitoylamino) = CCCCCCCCCCCCCCCC(=O)N[C@H](CCC(=O)*)CC(=O)O; γGlu = O=C(O)[C@H](CCC(=O)[*:2])N[*:1]; AEEA = NCCOCCOCC(=O)O; Aib = CC(C)(N)C(=O)O

Legend:
human GIP receptor = target: T1, human GIP receptor (Homo sapiens, UniProt P48546); assay: cAMP response (HTRF) of HEK-293 cells stably expressing human GIP receptor; type: cell-based; details: Table 8; read-out: EC50 hGIP R
T1 construct: expressed in transfected cells; host or cells: HEK-293
T1 sequence (P48546 22-466): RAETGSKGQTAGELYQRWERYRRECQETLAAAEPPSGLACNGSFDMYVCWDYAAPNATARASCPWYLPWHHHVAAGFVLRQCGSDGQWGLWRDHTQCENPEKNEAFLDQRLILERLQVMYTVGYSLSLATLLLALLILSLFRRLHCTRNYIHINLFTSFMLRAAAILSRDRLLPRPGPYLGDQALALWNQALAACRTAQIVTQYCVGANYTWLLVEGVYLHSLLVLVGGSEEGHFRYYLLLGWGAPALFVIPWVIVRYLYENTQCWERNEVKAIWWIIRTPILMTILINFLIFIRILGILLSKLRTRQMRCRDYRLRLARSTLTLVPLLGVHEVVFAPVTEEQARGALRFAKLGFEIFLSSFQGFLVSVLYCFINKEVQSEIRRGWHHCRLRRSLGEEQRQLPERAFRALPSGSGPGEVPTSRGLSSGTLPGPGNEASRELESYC
Description: Agonism of compounds for the receptors was determined by functional assays measuring cAMP response of HEK-293 cell lines stably expressing human GLP-1, GIP or glucagon receptor.
(§1) cAMP content of cells was determined using a kit from Cisbio Corp. (cat. no. 62AM4PEJ) based on HTRF (Homogenous Time Resolved Fluorescence). For preparation, cells were split into T175 culture flasks and grown overnight to near confluency in medium (DMEM/10% FBS). Medium was then removed and cells washed with PBS lacking calcium and magnesium, followed by proteinase treatment with accutase (Sigma-Aldrich cat. no. A6964). Detached cells were washed and resuspended in assay buffer (1×HBSS; 20 mM HEPES, 0.1% BSA, 2 mM IBMX) and cellular density determined. They were then diluted to 400000 cells/ml and 25 μl-aliquots dispensed into the wells of 96-well plates. For measurement, 25 μl of test compound in assay buffer was added to the wells, followed by incubation for 30 minutes at room temperature. After addition of HTRF reagents diluted in lysis buffer (kit components), the plates were incubated for 1 hr, followed by measurement of the fluorescence ratio at 665/616 nm. In vitro potency of agonists was quantified by determining the concentrations that caused 50% activation of maximal response (EC50).
(§2) Potencies of peptidic compounds at the GLP-1, glucagon and GIP receptors were determined by exposing cells expressing human glucagon receptor (hGlucagon R), human GIP receptor (hGIP-R) or human GLP-1 receptor (hGLP-1 R) to the listed compounds at increasing concentrations and measuring the formed cAMP as described in Methods.

[1] = Thioflavin T (ThT) assay for physical stability (fibrillation); type: physicochemical; details: 3 mg/ml, 100 mM acetate pH 4.5 with m-cresol, 37° C. shaking
Text: Low physical stability of a peptide solution may lead to amyloid fibril formation, which is observed as well-ordered, thread-like macromolecular structures in the sample, which eventually may lead to gel formation. Thioflavin T (ThT) is widely used to visualize and quantify the presence of misfolded protein aggregates. [Biancalana et al. (2010) Biochimica et Biophysica Acta. 1804 (7): 1405-1412]. […] Enzymol. 309, 274-284]. The time course for fibril formation often follows the characteristic shape of a sigmoidal curve and can be separated into three regions: a lag phase, a fast growth phase, and a plateau phase.
The typical fibril formation process starts with the lag phase in which the amount of partially folded peptide turned into fibrils is not significant enough to be detected. The lag-time corresponds to the time the critical mass of the nucleus is built. Afterwards, a drastic elongation phase follows and fibril concentration increases rapidly.
Investigations were carried out to determine fibrillation tendencies under stress conditions by shaking at 37° C. within Fluoroskan Ascent FL.
For the tests in Fluoroskan Ascent FL, 200 μL sample were placed into a 96 well mictrotiter plate PS, flat bottom, Greiner Fluotrac No. 655076. Plates were sealed with Scotch Tape (Quiagen). Samples were stressed by continuous cycles of 10 s shaking at 960 rpm and 50 s rest period at 37° C. The kinetic was monitored by measuring fluorescence intensity every 20 minutes.
Peptides were diluted in a buffer system to a final concentration of 3 mg/ml. 20 μL of a 10.1 mM ThT solution in H2O were added to 2 mL of peptide solution to receive a final concentration of 100 μM ThT. For each sample eight replicates were tested.
Tht buffer system A) 100 mM Acetate pH 4.5 including m-cresol (100 mM Natriumacetat trihydrat, pH adjustment using 2N CH3COOH, 2.7 mg/mL m-cresol) Tht buffer system B) 100 mM citrate buffer pH 6.0
Lag time in hours in Thioflavin T (ThT) assay of peptide samples was determined in ThT buffer system A as described in Methods.

[2] = Chemical stability assessment, UPLC-UV purity loss in buffer system A; type: physicochemical; details: 1 mg/ml, 25 mM acetate buffer pH 4.5 with m-cresol
Description: Prior to the chemical stability measurement of a peptide batch, its purity was determined through UPLC/MS. For stability testing the target concentration was 1 mg pure compound/ml. Therefore solutions from solid samples were prepared in a buffer system with a concentration of 1 mg/mL compound based on the previously determined % purity:
Chemical stability buffer system A) 25 mM acetate buffer pH 4.5, 3 mg/mL L-Methionine, 2.7 mg/mL m-cresol, 18 mg/mL Glycerol 85% Chemical stability buffer system B) 25 mM phosphate buffer pH 6.0, 3 mg/mL L-Methionine, 2.7 mg/mL m-cresol, 18 mg/mL Glycerol 85%
Peptide solutions were filtered through […] pore size and filled into aliquots under aseptic conditions. At starting point, UPLC-UV was performed by injection of 2 μl of the undiluted sample.
For chemical stability testing, aliquots were stored for 28 days at 5 and 40° C. After this time course the samples were centrifuged for 15 min at 2500 RCF. Then 2 μl of the undiluted supernatant were analysed with UPLC-UV.
The chemical stability was rated through the relative loss of purity calculated by the equation: [(purity at starting point)−(purity after 28 days at X° C.)]/(purity at starting point)]*100%
The purity is calculated as
[(peak area peptide)/(total peak area)]*100%
Peptide samples were prepared in Chemical stability buffer system A and the stability was assessed as described in Methods.

human GLP-1 receptor = target: T2, human GLP-1 receptor (Homo sapiens, UniProt P43220); assay: cAMP response (HTRF) of HEK-293 cells stably expressing human GLP-1 receptor; type: cell-based; details: Table 8; read-out: EC50 hGLP-1R
T2 construct: expressed in transfected cells; host or cells: HEK-293
T2 sequence (P43220 24-463): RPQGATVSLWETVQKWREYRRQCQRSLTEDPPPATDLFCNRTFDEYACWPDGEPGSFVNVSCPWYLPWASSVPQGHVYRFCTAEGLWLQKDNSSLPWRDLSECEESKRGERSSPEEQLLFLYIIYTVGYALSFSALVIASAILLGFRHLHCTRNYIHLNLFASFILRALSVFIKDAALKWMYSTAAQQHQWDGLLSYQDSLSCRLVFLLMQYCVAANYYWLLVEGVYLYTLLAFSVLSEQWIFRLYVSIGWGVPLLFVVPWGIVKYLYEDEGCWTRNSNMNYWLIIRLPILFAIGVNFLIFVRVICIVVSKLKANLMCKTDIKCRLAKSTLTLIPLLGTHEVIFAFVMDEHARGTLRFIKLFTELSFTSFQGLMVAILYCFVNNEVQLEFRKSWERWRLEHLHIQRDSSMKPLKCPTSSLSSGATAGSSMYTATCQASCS
Description: as §1, with “temperature.” for “temperature. After addition of HTRF reagents diluted in lysis buffer (kit components), the plates were incubated for 1 hr, followed by measurement of the fluorescence ratio at 665/616 nm. In vitro potency of agonists was quantified by determining the concentrations that caused 50% activation of maximal response (EC50).”
as §2

SMILES	EC50 (human GIP receptor) [pM]	Lag time before increase [1] [h]	Chemical stability [relative purity loss 28 days 40° C.] (%) at pH 4.5 [2] [%]	EC50 (human GLP-1 receptor) [pM]
CCCCCCCCCCCCCCCC(=O)N[C@@H](CCC(=O)NCCCC[C@H](NC(=O)[C@H](CC(C)C)NC(=O)[C@H](CCCCN)NC(=O)[C@H](CO)NC(=O)[C@H](CC(C)C)NC(=O)[C@H](CC(=O)O)NC(=O)[C@H](CO)NC(=O)[C@@H](NC(=O)[C@H](Cc1ccccc1)NC(=O)[C@@H](NC(=O)CNC(=O)[C@H](Cc1c[nH]cn1)NC(=O)C(C)(C)NC(=O)[C@@H](N)Cc1c[nH]cn1)[C@@H](C)O)[C@@H](C)O)C(=O)N[C@@H](CCC(=O)O)C(=O)N[C@@H](CCC(=O)O)C(=O)N[C@@H](CCC(N)=O)C(=O)N[C@@H](CCCNC(=N)N)C(=O)N[C@@H](CCC(N)=O)C(=O)N[C@@H](CCCCN)C(=O)N[C@@H](CCC(=O)O)C(=O)N[C@@H](Cc1ccccc1)C(=O)N[C@H](C(=O)N[C@@H](CCC(=O)O)C(=O)N[C@@H](Cc1c[nH]c2ccccc12)C(=O)N[C@@H](CC(C)C)C(=O)N[C@@H](CCCCN)C(=O)N[C@@H](C)C(=O)NCC(=O)NCC(=O)N1CCC[C@H]1C(=O)N1CCC[C@H]1C(=O)N[C@@H](CO)C(=O)NC(C)(C)C(=O)N[C@@H](CCCCN)C(=O)N1CCC[C@H]1C(=O)N1CCC[C@H]1C(=O)N1CCC[C@H]1C(=O)N[C@@H](CCCCN)C(N)=O)[C@@H](C)CC)C(=O)O [SEQ ID NO: 20, H-Aib-H-G-T-F-T-S-D-L-S-K-L-K[gGlu-Palm]-E-E-Q-R-Q-K-E-F-I-E-W-L-K-A-G-G-P-P-S-Aib-K-P-P-P-K-NH2]	1.9	>45		
CCCCCCCCCCCCCCCC(=O)N[C@H](CCC(=O)NCCOCCOCC(=O)N[C@@H](CCC(=O)NCCCC[C@H](NC(=O)[C@H](CC(C)C)NC(=O)[C@H](CCCCN)NC(=O)[C@H](CO)NC(=O)[C@H](CC(C)C)NC(=O)[C@H](CC(=O)O)NC(=O)[C@H](CO)NC(=O)[C@@H](NC(=O)[C@H](Cc1ccccc1)NC(=O)[C@@H](NC(=O)CNC(=O)[C@H](Cc1c[nH]cn1)NC(=O)C(C)(C)NC(=O)[C@@H](N)Cc1c[nH]cn1)[C@@H](C)O)[C@@H](C)O)C(=O)N[C@@H](CCC(=O)O)C(=O)N[C@@H](CCC(=O)O)C(=O)N[C@@H](CCC(N)=O)C(=O)N[C@@H](CCCNC(=N)N)C(=O)N[C@@H](CCC(N)=O)C(=O)N[C@@H](CCCCN)C(=O)N[C@@H](CCC(=O)O)C(=O)N[C@@H](Cc1ccccc1)C(=O)N[C@H](C(=O)N[C@@H](CCC(=O)O)C(=O)N[C@@H](Cc1c[nH]c2ccccc12)C(=O)N[C@@H](CC(C)C)C(=O)N[C@@H](CCCCN)C(=O)N[C@@H](C)C(=O)NCC(=O)NCC(=O)N[C@@H](Cc1c[nH]cn1)C(=O)N1CCC[C@H]1C(=O)N[C@@H](CO)C(=O)NC(C)(C)C(=O)N[C@@H](CCCCN)C(=O)N1CCC[C@H]1C(=O)N1CCC[C@H]1C(=O)N1CCC[C@H]1C(=O)N[C@@H](CCCCN)C(N)=O)[C@@H](C)CC)C(=O)O)CC(=O)O [SEQ ID NO: 22, H-Aib-H-G-T-F-T-S-D-L-S-K-L-K[gGlu-AEEA-gAAA-Palm]-E-E-Q-R-Q-K-E-F-I-E-W-L-K-A-G-G-H-P-S-Aib-K-P-P-P-K-NH2] (H-H[Aib]HGTFTSDLSKLK([γGlu-AEEA-Adipoyl(4R-palmitoylamino)])EEQRQKEFIEWLKAGGHPS[Aib]KPPPK-NH2)	1.1	>45	9.5	
CCCCCCCCCCCCCCCC(=O)N[C@H](CCC(=O)NCCOCCOCC(=O)N[C@@H](CCC(=O)NCCCC[C@H](NC(=O)[C@H](CC(C)C)NC(=O)[C@H](CCCCN)NC(=O)[C@H](CO)NC(=O)[C@H](CC(C)C)NC(=O)[C@H](CC(=O)O)NC(=O)[C@H](CO)NC(=O)[C@@H](NC(=O)[C@H](Cc1ccccc1)NC(=O)[C@@H](NC(=O)CNC(=O)[C@H](Cc1c[nH]cn1)NC(=O)C(C)(C)NC(=O)[C@@H](N)Cc1c[nH]cn1)[C@@H](C)O)[C@@H](C)O)C(=O)N[C@@H](CCC(=O)O)C(=O)N[C@@H](CCC(=O)O)C(=O)N[C@@H](CCC(N)=O)C(=O)N[C@@H](CCCNC(=N)N)C(=O)N[C@@H](CCC(N)=O)C(=O)N[C@@H](CCCCN)C(=O)N[C@@H](CCC(=O)O)C(=O)N[C@@H](Cc1ccccc1)C(=O)N[C@H](C(=O)N[C@@H](CCC(=O)O)C(=O)N[C@@H](Cc1c[nH]c2ccccc12)C(=O)N[C@@H](CC(C)C)C(=O)N[C@@H](CCCCN)C(=O)N[C@@H](C)C(=O)N[C@H](C)C(=O)NCC(=O)N[C@@H](Cc1c[nH]cn1)C(=O)N1CCC[C@H]1C(=O)N[C@@H](CO)C(=O)NC(C)(C)C(=O)N[C@@H](CCCCN)C(=O)N1CCC[C@H]1C(=O)N1CCC[C@H]1C(=O)N1CCC[C@H]1C(=O)N[C@@H](CCCCN)C(N)=O)[C@@H](C)CC)C(=O)O)CC(=O)O [SEQ ID NO: 23, H-Aib-H-G-T-F-T-S-D-L-S-K-L-K[gGlu-AEEA-gAAA-Palm]-E-E-Q-R-Q-K-E-F-I-E-W-L-K-A-dAla-G-H-P-S-Aib-K-P-P-P-K-NH2] (H-H[Aib]HGTFTSDLSKLK([γGlu-AEEA-Adipoyl(4R-palmitoylamino)])EEQRQKEFIEWLKA[dA]GHPS[Aib]KPPPK-NH2)	1.5	>45	8.6	1.4
